Results published in patent US11524975B2, “Amphiphilic compound having dendronic hydrophobic group and application thereof” (Industry-University Cooperation Foundation Hanyang …, priority 2017, dated 2022).
Read-outs that look alike come from different tables or passages of the source.

Columns and labels:
LHI-RC complex = test system: T1, LHI-RC complex; assay: Structural stability of LHI-RC complex in detergent, UV-Vis absorbance at 875 nm; parameters: species or system R. capsulatus; settings: 25° C., FIG. 5
T1 construct: His tag (implied only by Ni-NTA / HisSpinTrap purification); made in house; host or cells: R. capsulatus U43 [pUHTM86Bgl] membranes
Description: An experiment was conducted to evaluate the stabilization ability of DTMs on LHI-RC. The photosynthetic super assembly consists of a complex of light-harvesting complex I (LHI) and a reaction center (RC). The structural stability of LHI-RC was measured by a method of monitoring the structure of a protein for 20 days using UV-Vis spectroscopy. LHI-RC protein stability according to the concentration of an amphiphilic molecule was investigated using all DTMs of the present invention, and conventional amphiphilic molecules, such as DDM and OG, and the concentrations of an amphiphilic molecule used here were CMC+ 0.04 wt % (FIG. 5a) and CMC+ 0.2 wt % (FIG. 5b).
Specifically, LHI-RC stability was measured using a method disclosed in the paper published in 2008 by the inventors (P. S. Chae et al., ChemBioChem 2008, 9, 1706-1709.). […] A 10 mL aliquot of the solution of the frozen R. capsulatus membrane was homogenized using a glass homogenizer, and incubated with gentle stirring at 32° C. for 30 minutes. The homogenized membrane was treated with 1.0 wt % DDM for 30 minutes at 32° C. […] Protein stability was measured at regular intervals during the incubation by measuring UV-Vis spectra of the samples in the range of 650 to 950 nm. Protein integrity was evaluated by monitoring absorbance (A875) at 875 nm.

β2AR = target: T2, β2AR (Homo sapiens, UniProt P07550); assay: β2AR stability in detergent, [3H]-dihydroalprenolol (DHA) binding; assay type: biochemical; settings: CMC+0.2 wt %, 4 days at room temperature, FIG. 9a
T2 construct: made in house; host or cells: Sf9 insect cells, baculovirus
Description: A receptor was expressed in Sf9 insect cells infected with a baculovirus and solubilized in 1% DDM. The DDM-solubilized receptor was purified by alprenolol-sepharose in the presence of 0.01% cholesteryl succinate (CHS). β2AR purified by DDM was diluted with a buffer containing DDM or DTM (DTM-A6, DTM-A7 or DTM-E7) to reach the final concentration of CMC+0.2 wt %. β2AR solubilized in each compound was stored for 4 days at room temperature, and the ligand binding ability of the receptor was measured at regular intervals by incubating the receptor with 10 nM radioactive [^3H]-dihydroalprenolol (DHA) for 30 minutes at room temperature. The mixture was loaded into a G-50 column, and a supernatant was collected using a certain amount of binding buffer (supplemented with 20 mM HEPES pH 7.5, 100 mM NaCl, 0.5 mg/ml BSA). In addition, a 15 ml scintillation fluid was added. Receptor-binding [^3H]-DHA was measured using a scintillation counter (Beckman).

β2AR-Gs complex [1] = target: T3, β2AR-Gs complex (Homo sapiens, UniProt P07550); settings: DDM-purified complex, previous study; cited from earlier work
T3 construct: made in house; host or cells: β2AR: Sf9 insect cells

[2] = Critical micelle concentration by hydrophobic fluorescence staining with diphenylhexatriene (DPH); assay type: physicochemical
Description: A method of measuring CMC is not particularly limited, and may be a method widely known in the art, for example, fluorescent staining using diphenylhexatriene (DPH).
(§1) To identify the properties of DTMs synthesized according to the synthetic methods of Examples 1 and 2, the molecular weights (M.W.) and critical micellar concentrations (CMCs) of DTMs, and hydrodynamic radii (Rh) of formed micelles were measured.
(§2) Specifically, the CMCs were measured using hydrophobic fluorescence staining and diphenylhexatriene (DPH), and the hydrodynamic radii (Rh) of the micelles formed by each formulation were measured by dynamic light scattering (DLS).

MelBSt and MelBEc = assay: Galactoside-binding Trp→D2G FRET assay of detergent-solubilized MelB homologs; assay type: biochemical; settings: 1.0% detergent, 60 minutes at 23° C., FIG. 8c
Description: In addition, RSO vesicles were prepared to be used for Trp→D^2G FRET assay. The RSO membrane vesicles were prepared by osmotic lysis from E. coli DW2 cells containing MelBSt or MelBEc. The RSO membrane vesicles mixed in a buffer (pH 7.5) containing 100 mM KPi and 100 mM NaCl at a protein concentration of 1 mg/ml were treated with 1.0% individual compounds (DDM, DTM-A5 and DTM-A6) for 60 minutes at 23° C., and ultracentrifuged using a TLA 120.2 rotor at 300,000 g or more for 45 minutes at 4° C. Supernatants were applied to a FRET (Trp→D^2G) experiment using an Amico-Bowman Series 2 (AB2) spectrofluorometer. The 2′-(N-dansyl)aminoalkyl-1-thio-β-D-galactopyranoside (D^2G, dansyl-galactoside) was obtained from Drs. Gerard Leblanc and H. Ronald Kaback. D^2G FRET signals of MelBSt and MelBEc were collected at 490 and 465 nm, respectively, upon excitation of Trp residues at 290 nm. 10 μM D^2G and excess melibiose or an equal amount of water (control) was added into an MelB solution at the time points of 1 minute and 2 minutes, respectively.

[3] = Hydrodynamic radius of micelles by dynamic light scattering (DLS); assay type: physicochemical; settings: 0.5 wt % detergent concentration
Description: A method of measuring the radius of a micelle is not particularly limited, but may be a method well known in the art, for example, dynamic light scattering (DLS).
as §1, §2

β2AR-Gs complex [4] = target: T3, β2AR-Gs complex; settings: DDM-purified complex, previous study; cited from earlier work; remark: listed apart in the source
[5] = target: T4, MelBSt (melibiose permease) (Salmonella typhimurium, UniProt P30878); settings: 1.5 wt % detergent, 90 minutes
T4 construct: made in house; host or cells: E. coli DW2 (ΔmelB, ΔlacZY), plasmid pK95ΔAHB/WT MelBSt/CH10
Description: Specifically, Salmonella typhimurium MelBSt (melibiose permease) having a 10-His tag at the C-terminus was expressed in E. coli DW2 cells (ΔmelB and ΔlacZY) using a pK95ΔAHB/WT MelBSt/CH10 plasmid. Cell growth and membrane preparation were carried out according to the methods disclosed in the paper written by A. S. Ethayathulla et al. (Nat. Commun. 2014, 5, 3009). A protein assay was performed using a Micro BCA kit (Thermo Scientific, Rockford, Ill.). MelBSt stability in DTMs or DDM was evaluated using the protocol disclosed in Nat. Methods 2010, 7, 1003-1008, written by P. S. Chae et al. A MelBSt-containing membrane sample (the final protein concentration was 10 mg/mL) was incubated in a solubilization buffer containing 1.5% (w/v) DDM or DTM (20 mM sodium phosphate, pH 7.5, 200 mM NaCl, 10% glycerol and 20 mM melibiose) at four different temperatures (0, 45, 55 and 65° C.) for 90 minutes. To remove an insoluble material, ultracentrifugation was performed using a Beckman Optima™ MAX ultracentrifuge equipped with a TLA-100 rotor at 355,590 g and 4° C. for 45 minutes. […] The loaded samples were analyzed by SDS-15% PAGE, and then visualized by immunoblotting with a Penta-His-HRP antibody (Qiagen, Germantown, Md.).

β2AR-Gs complex [6] = target: T3, β2AR-Gs complex; assay: Negative stain EM analysis of β2AR-Gs complex; settings: FIG. 11
Description: A β2AR-Gs protein complex was prepared for electron microscopy using a conventional negative staining protocol, and imaged at room temperature using a Tecnai T12 electron microscope operated at 120 kV according to a low-dose procedure. Images were recorded at a magnification of 71,138× and a defocus value of approximately ˜1.1 μm on a Gatan US4000 CCD camera. All images were binned (2×2 pixels) to obtain a pixel size of 4.16 Å at a specimen level. Particles were manually […] using e2boxer (part of the EMAN2 software suite). 2D reference-free alignment and classification of particle projections were performed using ISAC. 124,279 projections of β2AR-Gs were subjected to ISAC producing 131 classes consistent in two-way matching and 10,000 particle projections.

β2AR-Gs complex [7] = target: T3, β2AR-Gs complex; assay: Stability of β2AR-Gs complex by analytical gel filtration (SEC); settings: complex purified in detergent, compound-free running buffer, 3 and 15-day incubation, FIG. 9b
Description: 100 μM β2AR solubilized in 0.1% DDM was mixed with 120 μM Gs heterotrimer for 30 minutes at room temperature. 0.5 unit of apyrase (NEB) and 2 mM MgCl2 was added to facilitate complex formation, followed by further incubation for one hour. Subsequently, 1% DTM-A6 was added such that the final concentration reached 0.8%, and the sample was further incubated for 30 minutes to change DDM to DTM-A6. The protein solution was loaded into a M1 Flag column, washed with a series of buffers with different molar ratios of 0.1% DDM buffer to 0.5% DTM-A6 buffer to completely change DDM to DTM-A6, and the protein was finally eluted with 0.05% (70×CMC) DTM-A6 buffer. Preparative gel filtration was performed to purify the β2AR-Gs complex with a running buffer (20 mM HEPES pH 7.5, 100 mM NaCl, 0.005% DTM-A6, 1 mM BI, […]). To measure the stability of the β2AR-Gs complex in DTM-A6, analytical gel filtrations were performed using the running buffer as above, but after 3 and 15-day incubation, performed without DTM-A6 (compound-free condition).

[8] = DPH fluorescence staining, aqueous solution

Row | Structure (SMILES) | LHI-RC protein stability when concentration increases from CMC+0.04 wt % to CMC+0.2 wt % (LHI-RC complex) | long-term β2AR receptor activity (β2AR) | integrity of β2AR-Gs complex (β2AR-Gs complex [1]) | CMC [2] [µM] | CMC [2, 8] [µM] | CMC (wt %) [2, 8] [wt %] | maintenance of MelB protein function (galactoside binding) of two homologs (MelBSt and MelBEc) | R2 (nm), detergent hydrodynamic radius [3] [nm] | homogeneity of β2AR-Gs complex particles (negative stain EM) (β2AR-Gs complex [4]) | MelBst solubilization from the membrane ([5]; 0° C. and 45° C.) | MelBst protein extraction efficiency ([5]; 0° C.) | MelBst solubilization from the membrane ([5]; 65° C.) | homogeneity of β2AR-Gs complex particles (negative stain EM) (β2AR-Gs complex [6]) | integrity of β2AR-Gs complex (SEC) (β2AR-Gs complex [7]) | MelBst solubilization from the membrane ([5]; 55° C.)
1 | CCCCCCCCCCCCO[C@@H]1O[C@H](CO)[C@@H](O[C@H]2O[C@H](CO)[C@@H](O)[C@H](O)[C@H]2O)[C@H](O)[C@H]1O [DDM, n-dodecyl-β-D-maltopyranoside] | protein stability decreases | rapid loss of activity over time | significant dissociation between the receptor and Gs protein even after 2 day-incubation | 170 | 170 | 0.0087 | only one of the two homologs | 3.4 ± 0.0 | aggregation of particles | stably solubilized | higher protein extraction efficiency than DTMs | did not occur | – | – | –
2 | CCCCCCC(CCCCCC)COCC(COCC(CCCCCC)CCCCCC)COCC(CO[C@@H]1OC(CO)[C@@H](O[C@H]2OC(CO)[C@@H](O)C(O)C2O)C(O)C1O)(CO[C@@H]1OC(CO)[C@@H](O[C@H]2OC(CO)[C@@H](O)C(O)C2O)C(O)C1O)CO[C@@H]1OC(CO)[C@H](O[C@H]2OC(CO)[C@@H](O)C(O)C2O)C(O)C1O (stereo partly drawn) [DTM-A6] | – | consistently maintained | – | – | ~10 | ~0.0015 | maintain protein function | 3.7 ± 0.0 | – | – | – | – | highly homogeneous | continuously maintains its integrity as a complex for 15 days | most effectively solubilized
3 | CCCCCCCCO[C@@H]1O[C@H](CO)[C@@H](O)[C@H](O)[C@H]1O [OG, n-octyl-β-D-glucopyranoside] | protein stability decreases | – | – | – | – | – | – | – | – | – | – | – | – | – | –
